Experimental data taken from patent US7135466B2 (Kirin Beer Kabushiki Kaisha, priority 1999, dated 2006).
Like-named read-outs stand apart in the source and are kept apart here.

Legend:
[1] = molecular target: T1, PDGF-Ra (Homo sapiens, UniProt P16234); experiment: Inhibitory activity against PDGF-Ra phosphorylation by PDGF-AA stimulation using G292; format: cell-based; conditions: > means inhibition at indicated concentration not more than 50%, < and << not less than 50%, read-out: PDGF (E) IC50
T1 construct: host or cells: G-292 human osteosarcoma cells
In short: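 Cells seeded in low-serum medium are exposed to test compound for one hour, then PDGF-AA (50 ng/ml) triggers receptor phosphorylation for 5 min at 37 °C. Phospho-PDGF-Ra in solubilized cells is quantified by anti-phosphotyrosine capture ELISA at 450 nm.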

[2] = molecular target: T2, human KDR (Homo sapiens, UniProt P35968); experiment: Inhibitory activity against KDR phosphorylation (NIH 3T3 cells transfected with human KDR, VEGF); format: cell-based; conditions: VEGF 100 ng/ml
T2 construct: expressed in transfected cells; host or cells: NIH 3T3 cells
Protocol: Measurement of Inhibitory Activity Against KDR Phosphorylation
NIH 3T3 cells (Sawano A et al., Cell Growth & Differentiation, 7, 213–221 (1996)) prepared by transfection of human KDR were cultured in a DMEM medium containing 10% FBS (GIBCO BRL) within a 5% carbon dioxide incubator until 50 to 70% confluent. The harvested cells were inoculated into wells of a collagen-type one-coat 96-well flat-bottom plate, each containing the same medium, in an amount of 1.5×10^4 per well, followed by cultivation at 37° C. overnight. The medium was then replaced by a DMEM medium containing 0.1% FBS. A solution of a test compound in dimethyl sulfoxide was added to each well, and the cultivation was carried out at 37° C. for additional one hr. A human recombinant vascular endothelial growth factor (hereinafter abbreviated to “VEGF”) was added to a concentration of 100 ng/ml, and the stimulation of cells was carried out at 37° C. for 2 min. The medium was removed, the cells were washed with phosphate buffered saline (pH 7.4), and 50 μl of a solubilization buffer (20 mM HEPES (pH 7.4), 150 mM NaCl, 0.2% Triton X-100, 10% glycerol, 5 mM sodium orthovanadylate, 5 mM disodium ethylenediaminetetraacetate, and 2 mM Na4P2O7) was then added thereto. The mixture was shaken at 4° C. for 2 hr to prepare a cell extract.
An anti-phospho-tyrosine antibody (PY20; Transduction Laboratories) was immobilized on a microplate for ELISA (Maxisorp; NUNC), and the whole quantity of the cell extract was transferred to the wells, and the immobilized antibody was reacted with the phosphorylated protein at 4° C. overnight. After washing, an anti-KDR antibody (Santa Cruz) was allowed to react at room temperature for one hr, and, further, after washing, a peroxidase-labeled anti-rabbit Ig antibody (Amersham) was allowed to react at room temperature for one hr. After washing, a chromophoric substrate for peroxidase (Sumitomo Bakelite Co., Ltd.) was added thereto and was allowed to react at room temperature. After a suitable level of color development, a reaction termination solution was added to stop the reaction, and the absorbance at 450 nm was measured with a microplate reader. The KDR phosphorylation activity for each well was determined by presuming the absorbance with the addition of VEGF and without the addition of the medicament to be 100% KDR phosphorylation activity and the absorbance without the medicament and VEGF to be 0% KDR phosphorylation activity.
The concentration of the test compound was varied on several levels, the inhibition (%) of KDR phosphorylation was determined for each case, and the concentration of the test compound necessary for inhibiting 50% of KDR phosphorylation (IC50) was calculated.

[3] = molecular target: T3, c-kit (Homo sapiens, UniProt P10721); experiment: Inhibitory activity against c-kit autophosphorylation (MO7e cells, h-SCF); format: cell-based; conditions: for IC50: MO7e cells, read-out: c-kit IC50; for inhibition at 1 µM: Mo7e, figure within parentheses in −( ) or >1000( ), at 1000 nM
T3 construct: MO7e (human megakaryocytic leukemia cell line) which had been arrested for 20 hr; endogenous in cells; host or cells: MO7e human megakaryocytic leukemia cell line
In short: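 First, human megakaryocytic leukemia MO7e cells arrested 20 hr receive compound for one hour. Second, SCF stimulation (50 ng/ml) runs 5 min, after which cells are solubilized. Third, tyrosine-phosphorylated c-kit in the lysate is quantified by sandwich ELISA with absorbance at 450 nm.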

[4] = tested on: neointima of balloon-injured left carotid artery; experiment: Rat carotid balloon injury model; format: in vivo; conditions: po, 336 h, in vivo, orally twice a day for 2 weeks, Wistar male rats, read-out: I/M ratio, inhibition (%)
Protocol: Rat Carotid Balloon Injury Model
Wistar male rats ([…]) were anesthetized with pentobarbital anesthesia, the right femoral region was incised from the rats, a Fogaty 2F catheter was inserted through the right femoral artery and was led to the left carotid artery, and abrasion was made three times with an expansion diameter of 2.5 mm.
The test compound was suspended in 1% cremophore, and the suspension was orally administered at 0.4 ml/100 g B.W. twice a day through an oral probe for rats for 2 weeks from the day before an operation. On the second week after the operation, the rats were sacrificed by ether. The left carotid artery was removed and was fixed in buffered formalin. Sliced preparations embedded in paraffin were stained with HE and were subjected to image analysis for the measurement of the neointima area (I) and media area (M) in the section of injured blood vessal. I/M was calculated as an index for the evaluation of drug efficacy.

[5] = tested on: intima of balloon-injured coronary vessel; experiment: Porcine coronary balloon injury model; format: in vivo; conditions: 10 mg/kg orally twice a day for 28 days, gelatin capsule, shoats
Protocol: Porcine Coronary Balloon Injury Model Edible shoats (24 to 31 kg) were anesthetized with telazol and xylazine, a balloon catheter was inserted through the femoral artery, and the descending branch in front of the heart on the left and the right rotator branch were injured under vasographing. For 28 days from the operation, the compound of Example 679 was orally administered as a gelatin capsule at a dose of 10 mg/kg twice a day. Further, only a gelatin capsule was administered as a control. In the test, each group consisted of 6 shoats. On the 28th day from the operation, the shoats were sacrificed with pentobarbital and were perfused with buffered formalin, and the heart was then removed. Paraffin embedded preparations of the injured blood vessel portion were sliced and stained with HE, followed by image analysis to measure the intima area (IA), media area (MA), and vessel area (VA), and the fissure length (FL) and vessel perimeter (VP) of the inner elastic plate. IA/MA and (IA/VA)/(FL/VP) were calculated as an index for the evaluation of drug efficacy.

T2 sequence (P35968 20-1356): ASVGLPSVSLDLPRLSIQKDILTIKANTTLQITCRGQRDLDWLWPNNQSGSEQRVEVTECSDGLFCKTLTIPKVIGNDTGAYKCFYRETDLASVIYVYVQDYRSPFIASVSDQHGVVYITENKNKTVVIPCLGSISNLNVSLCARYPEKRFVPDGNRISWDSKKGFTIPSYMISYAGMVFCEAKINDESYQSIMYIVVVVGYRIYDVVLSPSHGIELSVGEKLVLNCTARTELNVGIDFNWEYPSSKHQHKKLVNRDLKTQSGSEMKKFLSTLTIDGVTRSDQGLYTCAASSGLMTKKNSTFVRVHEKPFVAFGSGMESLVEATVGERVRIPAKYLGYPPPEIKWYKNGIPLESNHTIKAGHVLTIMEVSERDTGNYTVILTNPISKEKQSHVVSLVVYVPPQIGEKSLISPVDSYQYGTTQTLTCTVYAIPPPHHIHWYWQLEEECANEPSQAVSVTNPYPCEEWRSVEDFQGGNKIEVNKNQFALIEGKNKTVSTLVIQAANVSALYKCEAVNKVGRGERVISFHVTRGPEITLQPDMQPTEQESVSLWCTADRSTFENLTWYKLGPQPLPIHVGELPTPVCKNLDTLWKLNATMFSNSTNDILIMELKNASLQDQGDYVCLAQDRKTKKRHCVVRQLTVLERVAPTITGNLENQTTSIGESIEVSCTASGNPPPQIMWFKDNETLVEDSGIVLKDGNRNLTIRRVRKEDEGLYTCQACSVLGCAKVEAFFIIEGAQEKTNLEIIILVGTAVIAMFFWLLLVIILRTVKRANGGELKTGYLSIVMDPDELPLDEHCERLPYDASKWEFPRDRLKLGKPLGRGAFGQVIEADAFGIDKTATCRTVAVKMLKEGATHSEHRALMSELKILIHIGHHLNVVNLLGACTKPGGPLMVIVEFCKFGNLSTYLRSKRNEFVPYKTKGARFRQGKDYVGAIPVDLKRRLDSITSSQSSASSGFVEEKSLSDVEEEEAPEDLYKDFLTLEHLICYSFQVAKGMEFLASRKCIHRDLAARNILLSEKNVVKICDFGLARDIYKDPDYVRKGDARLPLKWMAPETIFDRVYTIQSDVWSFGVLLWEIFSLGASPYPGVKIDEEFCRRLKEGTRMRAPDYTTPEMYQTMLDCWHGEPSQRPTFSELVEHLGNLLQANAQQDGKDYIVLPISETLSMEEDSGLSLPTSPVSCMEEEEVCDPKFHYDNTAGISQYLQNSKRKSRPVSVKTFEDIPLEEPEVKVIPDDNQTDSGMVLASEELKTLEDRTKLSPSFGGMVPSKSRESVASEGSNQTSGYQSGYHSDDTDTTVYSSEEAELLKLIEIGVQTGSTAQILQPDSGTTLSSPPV
T3 sequence (P10721 26-976): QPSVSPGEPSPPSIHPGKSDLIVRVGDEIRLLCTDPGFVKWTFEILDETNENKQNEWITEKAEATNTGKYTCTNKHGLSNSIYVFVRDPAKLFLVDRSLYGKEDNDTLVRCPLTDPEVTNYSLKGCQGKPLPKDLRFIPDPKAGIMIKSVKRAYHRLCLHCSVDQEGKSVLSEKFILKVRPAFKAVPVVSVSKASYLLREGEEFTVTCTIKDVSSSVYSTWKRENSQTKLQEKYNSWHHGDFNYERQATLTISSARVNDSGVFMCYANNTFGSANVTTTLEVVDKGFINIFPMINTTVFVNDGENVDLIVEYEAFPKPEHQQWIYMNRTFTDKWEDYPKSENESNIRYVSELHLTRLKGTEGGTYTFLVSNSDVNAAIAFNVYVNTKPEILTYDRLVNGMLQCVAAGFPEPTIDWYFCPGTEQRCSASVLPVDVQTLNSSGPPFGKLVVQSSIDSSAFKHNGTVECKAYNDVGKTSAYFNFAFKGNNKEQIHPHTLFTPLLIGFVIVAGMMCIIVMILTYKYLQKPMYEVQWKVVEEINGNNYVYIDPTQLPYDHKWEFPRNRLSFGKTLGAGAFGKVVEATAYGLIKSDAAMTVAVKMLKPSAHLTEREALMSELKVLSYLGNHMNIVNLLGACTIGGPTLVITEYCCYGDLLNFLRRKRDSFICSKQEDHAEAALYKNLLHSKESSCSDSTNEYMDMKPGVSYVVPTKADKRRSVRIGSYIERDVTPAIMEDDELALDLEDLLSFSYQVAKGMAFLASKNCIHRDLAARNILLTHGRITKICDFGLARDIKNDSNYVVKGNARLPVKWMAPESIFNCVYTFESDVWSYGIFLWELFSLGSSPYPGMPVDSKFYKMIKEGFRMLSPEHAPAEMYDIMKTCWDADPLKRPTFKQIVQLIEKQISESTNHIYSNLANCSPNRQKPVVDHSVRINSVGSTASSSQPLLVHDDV
T1 sequence (P16234 24-1089): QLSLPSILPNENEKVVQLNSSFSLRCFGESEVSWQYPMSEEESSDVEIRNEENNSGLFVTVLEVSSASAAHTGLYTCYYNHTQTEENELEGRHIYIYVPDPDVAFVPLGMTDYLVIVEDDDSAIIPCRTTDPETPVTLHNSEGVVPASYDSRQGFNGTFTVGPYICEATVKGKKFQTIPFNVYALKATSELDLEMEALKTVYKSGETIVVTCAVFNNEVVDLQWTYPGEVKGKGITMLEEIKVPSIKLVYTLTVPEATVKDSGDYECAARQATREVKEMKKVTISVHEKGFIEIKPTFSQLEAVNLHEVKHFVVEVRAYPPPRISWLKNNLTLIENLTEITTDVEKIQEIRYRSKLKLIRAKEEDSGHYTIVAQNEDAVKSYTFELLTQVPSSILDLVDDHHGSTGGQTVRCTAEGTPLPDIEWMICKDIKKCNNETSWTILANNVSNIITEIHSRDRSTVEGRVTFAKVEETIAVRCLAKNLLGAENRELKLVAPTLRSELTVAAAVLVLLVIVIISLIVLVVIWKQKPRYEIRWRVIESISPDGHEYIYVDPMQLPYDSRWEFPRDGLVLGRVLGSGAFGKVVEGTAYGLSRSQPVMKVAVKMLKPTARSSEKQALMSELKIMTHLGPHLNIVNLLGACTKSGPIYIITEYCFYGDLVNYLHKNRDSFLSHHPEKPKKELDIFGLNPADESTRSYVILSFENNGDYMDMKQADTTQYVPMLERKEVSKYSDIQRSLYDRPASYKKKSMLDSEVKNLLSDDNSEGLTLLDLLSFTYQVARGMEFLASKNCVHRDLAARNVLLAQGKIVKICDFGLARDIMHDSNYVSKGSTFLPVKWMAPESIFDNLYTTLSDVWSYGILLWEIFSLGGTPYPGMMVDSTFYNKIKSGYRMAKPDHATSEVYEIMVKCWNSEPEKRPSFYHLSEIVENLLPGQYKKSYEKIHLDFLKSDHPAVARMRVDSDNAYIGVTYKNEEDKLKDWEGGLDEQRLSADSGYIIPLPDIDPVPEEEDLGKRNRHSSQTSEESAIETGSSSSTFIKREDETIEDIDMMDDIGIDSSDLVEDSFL

`COc1cc2nccc(Oc3ccc(NC(=S)NC(=O)c4ccccc4C)cc3)c2cc1OC` [Example 614, N-{4-[(6,7-Dimethoxy-4-quinolyl)oxy]-phenyl}-N′-(2-methylbenzoyl)thiourea] was tested, and the IC50 [1] was under 10 nM, the IC50 [2] was 47 nM and the IC50 ([3]; 50 ng/ml h-SCF) was 434 nM. It also gave an inhibition in vivo at 30 mg/kg [4] of 92%.

For `CCN(CC)CCNC(=O)Nc1ccc(Oc2ccnc3cc(OC)c(OC)cc23)cc1` [Example 622, N-[2-(Diethylamino)ethyl]-N′-{4-[(6,7-dimethoxy-4-quinolyl)oxy]phenyl}urea], the IC50 [1] was 11 nM, the IC50 [2] was over 1000 nM and the IC50 ([3]; 50 ng/ml h-SCF) was 355 nM. The inhibition in vivo at 30 mg/kg [4] was 38%.

Compound `COc1cc2nccc(Oc3cc(C)c(NC(=O)OC4CCCCCC4)cc3C)c2cc1OC` [Example 287, Cycloheptyl N-{4-[(6,7-dimethoxy-4-quinolyl)oxy]-2,5-dimethylphenyl}carbamate] has an IC50 ([1]; Pharmacological Test Example 1) of 13 nM, an IC50 [2] of over 1000 nM and an IC50 ([3]; h-SCF 50 ng/ml) of 228 nM. For the same compound, the inhibition in vivo at 30 mg/kg [4] was 37%.

`COc1cc2nccc(Oc3ccc(NC(=O)OCCCN4CCOCC4)cc3)c2cc1OC` [Example 421, 3-Morpholinopropyl N-{4-[(6,7-dimethoxy-4-quinolyl)oxy]phenyl}carbamate] gave an IC50 [1] of under 10 nM, an IC50 [2] of 692 nM and an IC50 ([3]; 50 ng/ml h-SCF) of 34 nM. It also gave an inhibition in vivo at 30 mg/kg [4] of 42%.

Work on `C#CCC(CC)OC(=O)Nc1ccc(Oc2ccnc3cc(OC)c(OC)cc23)cc1` (stereo not shown) [Example 408, 1-Ethyl-3-butynyl N-{4-[(6,7-dimethoxy-4-quinolyl)oxy]phenyl}carbamate] yielded an IC50 [1] of under 10 nM, an IC50 [2] of 108 nM and an IC50 ([3]; 50 ng/ml h-SCF) of 192 nM. It also gave an inhibition in vivo at 30 mg/kg [4] of 50%.

`CCCCN(CCCC)CCNC(=O)Nc1ccc(Oc2ncnc3cc(OC)c(OC)cc23)cc1[N+](=O)[O-]` [Example 687, N-[2-(Dibutylamino)ethyl]-N′-{4-[(6,7-dimethoxy-4-quinazolinyl)oxy]-2-nitrophenyl}urea] gave an IC50 [1] of 26 nM, an IC50 [2] of 176 nM and an inhibition at 1 µM [3] of 34%. For the same compound, the inhibition in vivo at 10 mg/kg [4] was 17%.

`COc1cc2nccc(Oc3ccc(NC(=S)NC(=O)Cc4ccccc4)cc3F)c2cc1OC` [Example 615, N-{4-[(6,7-Dimethoxy-4-quinolyl)oxy]-3-fluorophenyl}-N′-(2-phenylacetyl)thiourea] was tested, and the IC50 [1] was 17 nM, the IC50 [2] was 37 nM and the IC50 ([3]; 50 ng/ml h-SCF) was 125 nM. The inhibition in vivo at 30 mg/kg [4] was 43%.

With `CCN(CC)CCNC(=S)Nc1ccc(Oc2ncnc3cc(OC)c(OC)cc23)cc1` [Example 516, N-{4-[(6,7-Dimethoxy-4-quinazolinyl)oxy]phenyl}-N′-(2-diethylaminoethyl)thiourea] the IC50 [1] was 50 nM, the IC50 [2] was over 1000 nM and the inhibition at 1 µM [3] was 27%. It also gave an inhibition in vivo at 30 mg/kg [4] of 32%.

With `COc1cc2ncnc(Oc3ccc(NC(=O)NCCN4CCCCC4)c([N+](=O)[O-])c3)c2cc1OC` [Example 679, N-{4-[(6,7-Dimethoxy-4-quinazolinyl)oxy]-2-nitrophenyl}-N′-(2-piperidinoethyl)urea] the IC50 [1] was under 10 nM, the IC50 [2] was 323 nM and the “(IA/VA)/(FL/VP) inhibition (%)” value [5] was 47 (p < 0.001) %. For the same compound, the “IA/MA inhibition (%)” value [5] was 36 (p < 0.05) %, the IC50 ([3]; 50 ng/ml h-SCF) was 337 nM and the inhibition in vivo at 10 mg/kg [4] was 54%.

`CCN(CC)CCNC(=O)Nc1ccc(Oc2ncnc3cc(OC)c(OC)cc23)cc1[N+](=O)[O-]` [Example 647, N-[2-(Diethylamino)ethyl]-N′-{4-[(6,7-dimethoxy-4-quinazolinyl)oxy]-2-nitrophenyl}urea] was tested, and the IC50 [1] was 13 nM, the IC50 [2] was 599 nM and the IC50 ([3]; 50 ng/ml h-SCF) was 712 nM. For the same compound, the inhibition in vivo at 10 mg/kg [4] was 32%.

Work on `COc1cc2ncnc(Oc3ccc(NC(=O)N[C@H]4CCN(Cc5ccccc5)C4)cc3)c2cc1OC` [Example 567, N-[(3S)-1-Benzyltetrahydro-1H-3-pyrrolyl]-N′-{4-[(6,7-dimethoxy-4-quinazolinyl)oxy]phenyl}urea] yielded an IC50 [1] of 21 nM, an IC50 [2] of over 1000 nM and an IC50 ([3]; 50 ng/ml h-SCF) of 118 nM. It also gave an inhibition in vivo at 10 mg/kg [4] of 24%.
